Drawing on patent US11518764B2, “Substituted heteroaryls as inhibitors of the BCL6 BTB domain protein-protein interaction” (Ontario Institute for Cancer Research (OICR), priority 2018, dated 2022), this text covers IC50, Kd and EC50 for 31 compounds.

Like-named read-outs stand apart in the source and are kept apart here.

As usually defined, the IC50 is the concentration that inhibits the measured activity by half. The Kd is the free concentration of one partner at which half of the binding sites on the other are occupied at equilibrium, for simple one-to-one binding. The term EC50 denotes the concentration needed to bring the measured effect to its halfway point.

The test system of one experiment is Karpas422 cells. As to the kind of experiment: Tumor cell growth inhibition assay. It counts as cell-based. The protocol: Tumor Cell Growth inhibition Assay
Karpas422 cells were seeded into a 96-well plate at 2,000 cells/well in 150 ul medium (Alpha-MEM containing 10% FBS, […] Normocin, and […] Gentamycin, Invitrogen). A HP D300 digital dispenser was used to dose cells with DMSO or test compounds across a 10-point range of concentrations (high dose of 5 uM), and cultures were grown in a humidified 5% CO2 incubator at 37° C. After six days, plates were removed from incubator and equilibrated to room temperature. An equal volume of ATPlite assay reagent was added to each well, and samples were processed according to manufacturer's instructions (Perkin Elmer). Luminescent signal was measured using an Envision plate reader equipped with a US-Luminescence detector.

For a further experiment, the target named is BCL6 BTB domain (Homo sapiens (Human), UniProt P41182). As to the kind of experiment: Surface plasmon resonance (SPR) assay. The format is binding. Conditions: BCL6 BTB domain captured on SA chip, single cycle kinetics.
Experiment [1] concerns BCL6 reporter construct (3xBCL6-TK-Luc) in SuDHL4 cells. The experiment is described as follows: Cell-based luciferase assay. The protocol: Cell-Based Luciferase Assay
A BCL6 reporter construct containing three copies of the consensus BCL6 binding site, the TK promoter, and the firefly luciferase gene was stably expressed in SuDHL4 cells after lentivirus infection and selection with Blasticidin. SuDHL4-3×BCL6-TK-Luc cells were seeded into a Viewplate 384-well assay dish at 15,000 cells/well in 25 ul medium (Alpha-MEM high glucose containing 10% FBS, 25 mM HEPES, […] GlutaMAX, 100 ug/ml Normocin, and […] Gentamycin, Invitrogen). A HP D300 digital dispenser was used to dose cells with DMSO or test compounds across a 10-point range of concentrations (high dose of 10 uM), and cultures were grown in a humidified 5% CO2 incubator at 37° C. After two days, plates were removed from the incubator and equilibrated to room temperature. An equal volume of neolite reporter gene assay reagent was added to each well, and samples were processed according to manufacturer's instructions (Perkin Elmer). Luminescent signal was measured using an Envision plate reader equipped with a US-Luminescence detector.

The mark [2] stands for this setting: Homo sapiens, KARPAS-422, 144 h, read-out: Tumor Growth Inhibition in Karpas-422 (IC50, uM), Karpas422 cells, six days, ATPlite.
The mark [3] stands for this setting: Homo sapiens, SU-DHL-4, 48 h, read-out: Luciferase-Assay EC50, uM), SuDHL4-3xBCL6-TK-Luc cells, two days, high dose 10 uM.
Where [4] appears, read: read-out: Tumor Growth Inhibition in Karpas-422 (IC50), Karpas422 cells, six days, ATPlite.

In the case of `C[C@H]1CN(CC2CC2)CCN1c1cc(NC(=O)Cn2cc(-c3cc(F)c(O)c(C(N)=O)c3)c3c(=O)n(C)cnc32)c(Cl)cn1` [Compound I-303], in the experiment with Karpas422 cells (setting [2]), the IC50 worked out at 0.0323 µM. The same compound had an equilibrium dissociation constant (Kd) at BCL6 BTB domain of 6.36 nM. In addition, in experiment [1] (setting [3]), the EC50 came out at 0.0493 µM.

Take `C[C@@H]1CN(c2cc(NC(=O)Cn3cc(-c4cc(F)c(O)c(C(N)=O)c4)c4c(=O)n(C)cnc43)c(Cl)cn2)C[C@H](C)N1` [Compound I-218]: in the experiment on Karpas422 cells (setting [2]), the IC50 is 0.563 µM. The same compound registered an equilibrium dissociation constant (Kd) at BCL6 BTB domain of 16.4 nM. For the same compound, the half-maximal effective concentration (EC50) in experiment [1] (setting [3]) amounted to 0.975 µM.

With `C[C@H]1CN(CC2CCC2)CCN1c1cc(NC(=O)Cn2cc(-c3cc(C(N)=O)c(O)c(F)c3F)c3c(=O)n(C)cnc32)c(Cl)cn1` [Compound I-408], the IC50 in the experiment on Karpas422 cells (setting [2]) was 0.463 µM. At BCL6 BTB domain, this compound returned a Kd of 38.2 nM. Moreover, in experiment [1] (setting [3]), the EC50 came out at 0.759 µM. The corresponding values for `CC1OCCN(c2cc(NC(=O)Cn3cc(-c4cc(Cl)c(O)c(C(N)=O)c4)c4c(=O)n(C)cnc43)c(Cl)cn2)C1C` (centres unmarked) [Compound I-83] are 0.119 µM, 16 nM and 0.148 µM.

`COc1c(O)c(C(N)=O)cc(-c2cn(CC(=O)Nc3cc(N4CCOCC4)ncc3Cl)c3ncn(C)c(=O)c23)c1F` [Compound I-171]: the IC50 in the experiment on Karpas422 cells (setting [2]) was 1.04 µM. Further, on BCL6 BTB domain, the Kd was determined as 99.7 nM. Moreover, the EC50 in experiment [1] (setting [3]) came out at 1.2 µM. In the same order, the values of `CN(C)c1cc(NC(=O)Cn2cc(-c3cc(Cl)c(O)c(C(N)=O)c3)c3c(=O)n(C)c(NCC4CC4)nc32)c(Cl)cn1` [Compound I-130] are 0.775 µM, 80 nM and 1.03 µM. For `CN1CCN(c2ccc(Cl)c(NC(=O)Cn3cc(-c4cc(Cl)c(O)c(C(N)=O)c4)c4c(=O)n(C)cnc43)n2)CC1` [Compound I-175], the IC50 with Karpas422 cells (setting [2]) came out at 4.79 µM. On BCL6 BTB domain, this compound came in with a Kd of 429 nM. Compound `C[C@H]1CN(C)CCN1c1cc(NC(=O)Cn2cc(-c3cc(F)c(O)c(C(N)=O)c3)c3c(=O)n(C)c(C(F)(F)F)nc32)c(Cl)cn1` [Compound I-233] came in with a Kd at BCL6 BTB domain of 23.7 nM. Moreover, the EC50 in experiment [1] (setting [3]) turned out to be 0.161 µM. `Cn1cnc2c(c(-c3cc(Cl)c(O)c(C(N)=O)c3)cn2CC(=O)N[C@@H]2CCCC[C@H]2OC(=O)C(F)(F)F)c1=O` [Compound I-254, (1R,2R)-2-(2-(5-(3-carbamoyl-5-chloro-4-hydroxyphenyl)-3-methyl-4-oxo-3,4-dihydro-7H-pyrrolo[2,3-d]pyrimidin-7-yl)acetamido)cyclohexyl 2,2,2-trifluoroacetate] showed a Kd at BCL6 BTB domain of 3880 nM. The same measure, in the same setting: to `C[C@H]1CN(CC(F)(F)F)CCN1c1cc(NC(=O)Cn2cc(-c3cc(Cl)c(O)c(C(N)=O)c3)c3c(=O)n(C)c(C(F)(F)F)nc32)c(Cl)cn1` [Compound I-253] belongs 2100 nM. The same measure, in the same setting: to `CN1CC2CC(C1)N2c1cc(NC(=O)Cn2cc(-c3cc(F)c(O)c(C(N)=O)c3)c3c(=O)n(C)cnc32)c(Cl)cn1` [Compound I-450] belongs 43.6 nM. Turning to `C[C@H]1CN(CC2CC2)CCN1c1cc(NC(=O)Cn2cc(-c3cc(C(N)=O)c(O)c(F)c3F)c3c(=O)n(C)cnc32)c(Cl)cn1` [Compound I-307], the IC50 in the experiment on Karpas422 cells (setting [2]) is 0.676 µM. Further, the half-maximal effective concentration (EC50) in experiment [1] (setting [3]) is 0.464 µM. `C[C@H]1COCCN1c1cc(NC(=O)Cn2cc(-c3cc(Cl)c(O)c(C(N)=O)c3)c3c(=O)n(C)cnc32)c(Cl)cn1` [Compound I-35]: the IC50 in the experiment with Karpas422 cells (setting [4]) was 0.133 µM. Turning to “(S)-3-chloro-5-(7-(2-((5-chloro-2-(3-methylmorpholino)pyridin-4-yl)amino)-2-oxoethyl)-3-methyl-4-oxo-2-phenyl-4,7-dihydro-3H-pyrrolo[2,3-d]pyrimidin-5-yl)-2-hydroxybenzamide [Compound I-247]”, in the experiment on Karpas422 cells (Karpas422 cells, six days, ATPlite, read-out: Tumor Growth Inhibition in Karpas-422 (IC50)), the half-inhibitory concentration (IC50) was 0.628 µM. For the same compound, in experiment [1] (SuDHL4-3xBCL6-TK-Luc cells, two days, high dose 10 uM, read-out: Luciferase-Assay EC50), the EC50 came out at 15.2 µM. Compound `CN1CC2CC(C1)N2c1cc(NC(=O)Cn2cc(-c3cc(C(N)=O)c(O)c(F)c3F)c3c(=O)n(C)cnc32)c(Cl)cn1` [Compound I-451] came in with a Kd at BCL6 BTB domain of 157 nM.

For `CN(C)c1cc(NC(=O)Cn2cc(-c3cc(Cl)c(O)c(C(N)=O)c3)c3c(=O)n(C)c(Nc4cc(N(C)C)ncc4Cl)nc32)c(Cl)cn1` [Compound I-291, 3-chloro-5-(2-((5-chloro-2-(dimethylamino)pyridin-4-yl)amino)-7-(2-((5-chloro-2-(dimethylamino)pyridin-4-yl)amino)-2-oxoethyl)-3-methyl-4-oxo-4,7-dihydro-3H-pyrrolo[2,3-d]pyrimidin-5-yl)-2-hydroxybenzamide], the IC50 with Karpas422 cells (setting [2]) was 0.908 µM. Moreover, the EC50 in experiment [1] (setting [3]) was 1.76 µM. The corresponding values for `C[C@H]1COCCN1c1cc(NC(=O)Cn2cc(-c3cc(Cl)c(O)c(C(N)=O)c3)c3c(=O)n(C)c(N(C)C)nc32)c(Cl)cn1` [Compound I-263, (S)-3-chloro-5-(7-(2-((5-chloro-2-(3-methylmorpholino)pyridin-4-yl)amino)-2-oxoethyl)-2-(dimethylamino)-3-methyl-4-oxo-4,7-dihydro-3H-pyrrolo[2,3-d]pyrimidin-5-yl)-2-hydroxybenzamide] are 0.745 µM and 2.07 µM. In the same order, the values of `CNc1nc2c(c(-c3cc(Cl)c(O)c(C(N)=O)c3)cn2CC(=O)Nc2cc(N3CCOC[C@@H]3C)ncc2Cl)c(=O)n1C` [Compound I-268, (S)-3-chloro-5-(7-(2-((5-chloro-2-(3-methylmorpholino)pyridin-4-yl)amino)-2-oxoethyl)-3-methyl-2-(methylamino)-4-oxo-4,7-dihydro-3H-pyrrolo[2,3-d]pyrimidin-5-yl)-2-hydroxybenzamide] are 1.86 µM and 1.8 µM. As for `Cc1nc2c(c(-c3cc(C(N)=O)c(O)c(F)c3F)cn2CC(=O)Nc2cc(N3CCN(CC4CC4)C[C@@H]3C)ncc2Cl)c(=O)n1C` [Compound I-339], in the experiment with Karpas422 cells (setting [2]), the IC50 amounted to 0.237 µM. Besides, the EC50 in experiment [1] (setting [3]) came out at 0.454 µM. Consider `C[C@H]1COCCN1c1cc(NC(=O)Cn2cc(-c3cc(Cl)c(O)c(C(N)=O)c3)c3c(=O)n(C)cnc32)c(Cl)cn1` [Compound I-239], for which the IC50 in the experiment on Karpas422 cells (setting [4]) was found to be 0.316 µM. As for `Cc1nc2c(c(-c3cc(Cl)c(O)c(C(N)=O)c3)cn2CC(=O)Nc2cc(N3CCN(CC4CC4)C[C@@H]3C)ncc2Cl)c(=O)n1C` [Compound I-338], the concentration for half-maximal inhibition (IC50) with Karpas422 cells (setting [2]) was determined as 0.231 µM. In addition, in experiment [1] (setting [3]), the EC50 worked out at 0.163 µM. In the same order, the values of `Cc1nc2c(c(-c3cc(Cl)c(O)c(C(N)=O)c3)cn2CC(=O)Nc2cc(N3CCN(C4COC4)C[C@@H]3C)ncc2Cl)c(=O)n1C` [Compound I-336] are 0.0502 µM and 0.0383 µM. In the case of `Cn1cnc2c(c(-c3cc(Cl)c(O)c(C(N)=O)c3)cn2CC(=O)Nc2cc(N3CCn4cc(C(F)(F)F)nc4C3)ncc2Cl)c1=O` [Compound I-165], the affinity on BCL6 BTB domain, expressed as Kd, was 14.9 nM. The EC50 in experiment [1] (setting [3]) was found to be 0.466 µM. The corresponding values for `Cn1cnc2c(c(-c3cc(C(N)=O)c(O)cn3)cn2CC(=O)Nc2cc(N3CCOCC3)ncc2Cl)c1=O` [Compound I-143, 2-(7-(2-((5-chloro-2-morpholinopyridin-4-yl)amino)-2-oxoethyl)-3-methyl-4-oxo-4,7-dihydro-3H-pyrrolo[2,3-d]pyrimidin-5-yl)-5-hydroxyisonicotinamide] are 250 nM and 6.2 µM. As to `Cn1cnc2c(c(-c3cc(Cl)c(O)c(C(N)=O)c3)cn2CC(=O)NC2CCCc3ncccc32)c1=O` (centres unmarked) [Compound I-257], the affinity at BCL6 BTB domain, expressed as Kd, was 3640 nM.

Regarding `Cc1nc2c(c(-c3cc(Cl)c(O)c(C(N)=O)c3)cn2CC(=O)Nc2ccncc2Br)c(=O)n1C` [Compound I-337], the IC50 in the experiment with Karpas422 cells (setting [2]) came to 1.93 µM. The EC50 in experiment [1] (setting [3]) worked out at 1.55 µM. With `CN1CCC2(C1)CN(c1cc(NC(=O)Cn3cc(-c4cc(C(N)=O)c(O)c(F)c4F)c4c(=O)n(C)cnc43)c(Cl)cn1)C2` [Compound I-485], the Kd on BCL6 BTB domain was determined as 805 nM. On the same count and under the same terms, with `Cn1cnc2c(c(-c3cc(Cl)c(O)c(C(N)=O)c3)cn2CC(=O)NC2CCCc3ccncc32)c1=O` (centres unmarked) [Compound I-255] the figure was 6110 nM.

As to `COc1c(O)c(C(N)=O)cc(-c2cn(CC(=O)Nc3cc(N4CCN(C)C[C@@H]4C)ncc3Cl)c3nc(C(F)(F)F)n(C)c(=O)c23)c1F` [Compound I-266], the IC50 in the experiment on Karpas422 cells (setting [2]) stood at 2.78 µM. Also, in experiment [1] (setting [3]), the EC50 turned out to be 1.61 µM. On to `CCOc1cc(-c2cn(CC(=O)Nc3cc(N4CCOC[C@@H]4C)ncc3Cl)c3ncn(C)c(=O)c23)cc(C(N)=O)c1O` [Compound I-144], for which, in the experiment with Karpas422 cells (setting [2]), the IC50 was 10 µM. The EC50 in experiment [1] (setting [3]) amounted to 10 µM.

As for `[2H]C1(C([2H])([2H])N2CCN(c3cc(NC(=O)Cn4cc(-c5cc(C(N)=O)c(O)c(F)c5F)c5c(=O)n(C)cnc54)c(Cl)cn3)[C@@H](C)C2)CC1` [Compound I-370], the IC50 in the experiment with Karpas422 cells (setting [2]) was 1.31 µM. Moreover, in experiment [1] (setting [3]), the EC50 is 0.61 µM.
